Several values for one entry are separate records, joined by “and”; a condition that tells them apart may be missing. Equal entries are not always repeated. Structures can show the parent of a compound that is named as a salt. Where two headings read alike, the source gives them in different places.
Assays:
mice [1] = conditions: mice i.p.
mice [2] = experiment: Maximal electroshock (MES) model, mice; conditions: mice; for MICE MES ED50: intraperitoneal (i.p.) administration
mice [3] = experiment: Neurotoxicity in mice, rotorod ataxia test; conditions: mice i.p., rotorod ataxia test
Description: (§1) Neurotoxicity of the claimed agents was also assessed in mice (i.p. administration) by the rotorod ataxia test and/or in rats (p.o. administration) by positional sense test and gait stance test. […] The term quantitating the neurotoxicity is the medial neurological toxic dose (TD50), was determined in the above tests.

mongolian gerbils = experiment: Global brain ischemia in gerbils; type: in vivo, mongolian gerbil; conditions: 3 injections, fraction of hippocampi protected from ischemia, 14 days post-ischemia
Description: Male mongolian gerbils, aged 2.5-5 months, housed 4-8 in a cage, were supplied freely with food and water and maintained at 24° C. with a 12 hour day/night cycle. […] Each artery was clamped for 5 minutes with aneurysm clips to produce global brain ischemia. The anesthesia was discontinued upon clamping. After 5 minutes the clamps were removed and the wound closed with skin clips.
For treatment, the test compound or vehicle were injected intra-peritoneally (ip) in a volume of 50 microliters of solvent per 10 g body weight. The first injection was given two minutes after clamp removal, and thereafter daily for the next 2 post-operative days (total of 3 injections).
Seven groups each of 4-8 animals were compared:
V. Ischemia—Test compound treated, one sub-group per concentration tested,
VI. Ischemia and pentobarbital (40 mg/kg) as positive control).
Analysis of neuronal damage was performed 14 days post-ischemia by counting pyramidal neurons throughout the CA1 layer of the anterior hippocampus in […] thick (paraffin) coronal brain sections stained with hematoxylin and erosin.
Percent Protection values represent the fraction of hippocampi protected from ischemia in a group of animals treated with the stated dose of compound.

[4] = system: Mechanically dissociated Neonatal Rat Cerebellum; experiment: Reversal of NMDA induced cell death, neonatal rat cerebellum cultures; type: cell-based; conditions: for SURVIVING CELL IN CULTURE: relative to control (100%); for PERCENT PROTECTION: cell survival minus NMDA effect (30%); for EFFECTIVE PROTECTION: percent protection x 100/70
Description: The cerebellum was aseptically dissociated from 6 or 7-day old rat pups and placed in a 15 ml sterile plastic conical tube containing 3 ml of Dulbecco's modified Eagle's medium (DMEM) with a high glucose concentration ([…]) and 2 mM (v/v) L-glutamine and an antibiotic antimitotic mixture. The cerebella were then dissociated after 20-25 passages through a sterile 13 gauge, 10 cm long stainless steel needle attached to a 5 ml syringe with an inserted 45 micrometer pore nylon sieve. The dissociated cells were centrifuged at 200 g for 5 minutes. The supernatant was discarded and the cells resuspended in medium enriched with 15% (v/v) heat inactivated fetal calf serum. Cell viability was determined by the tryptan blue exclusion test.
Cells were plated at a density of 200/mm^2 on poly-L-lysine coated surfaces. Poly-L-lysine coated glass coverslips were prepared at least one hour in advance of plating by immersing sterile coverslips in sterile distilled water solution containing 15 microgram/ml poly-L-lysine, and washing in sterile water just prior to use. The plated cells were covered with enriched medium and incubated at 37° C. in an atmosphere of 5% CO2 in air and 97% humidity. After three days in culture, the media was replaced with media containing the desired test compound. Each test compound was tested in duplicate. Toxic-dose response was determined for each compound.
Four groups were run in each set of experiments;
I. Control, consisting of enriched media alone,
II. N-methyl-D-aspartate (NMDA, 1 mM for 3 hours) as the cytotoxic challenge,
III. Test compound plus NMDA, and
IV. Positive control, spermine(0.01 micromoles) plus NMDA.
Nerve cell survival was evaluated by phase contrast microscopy and tryptan blue staining after 24 hours.
Surviving cells in culture are measured relative to control (100%) as described above. Percent protection is the Cell Survival for the test compound minus the NMDA effect. Thus, maximal protection is 100% minus 30% NMDA effect i.e. 70%. The Effective Protection was calculated as the percent of the Percent Protection (X) divided by the maximal protection value (e.g. X×100/70).

rats [5] = experiment: Neurotoxicity in rats, positional sense test and gait stance test; conditions: rats p.o.; positional sense test and gait stance test
Description: as §1

rats [6] = conditions: rats p.o.
rats [7] = experiment: Maximal electroshock (MES) model, rats; conditions: rats, oral (p.o.) administration; median effective dose

SMILES | MICE scMet ED50 PI (mice [1]) | MICE MES ED50 (mice [2]) | MICE TD50 (mice [3]) | RATS TD50 (rats [5]) | RATS MES 50 (rats [7]) | further results
NC(=O)CNC1CCc2ccc(F)cc21 (racemic) [Compound 5, (rac)-6-Fluoro-N-(2-acetamido)-1-aminoindan.HCl] | >200 mg/kg | <100 mg/kg | >300 mg/kg | – | – | activity in the MES model in mice, in words (mice [2]): showed activity; MICE MES ED50 (mice [2]; listed as 5*): 58 mg/kg; MICE TD50 (mice [3]; listed as 5*): 138 mg/kg
Cl.N[C@@H]1CCc2ccc(O)cc21 [Compound 35, (R)-6-Hydroxy-1-aminoindan.HCl] | – | – | – | – | – | PERCENT PROTECTION (mongolian gerbils; 0.1 mg/kg ip): 25.0%; PERCENT PROTECTION (mongolian gerbils; 1.0 mg/kg ip): 37.5%; PERCENT PROTECTION (mongolian gerbils; 10.0 mg/kg ip): 37.5%; SURVIVING CELL IN CULTURE ([4]; 0.005 μM + NMDA 1 mM 3 hours): 60%; PERCENT PROTECTION ([4]; 0.005 μM + NMDA): 30%; EFFECTIVE PROTECTION ([4]; 0.005 μM + NMDA): 43%; SURVIVING CELL IN CULTURE ([4]; 0.010 μM + NMDA 1 mM 3 hours): 34%; PERCENT PROTECTION ([4]; 0.010 μM + NMDA): 4%; EFFECTIVE PROTECTION ([4]; 0.010 μM + NMDA): 6%; SURVIVING CELL IN CULTURE ([4]; 0.100 μM + NMDA 1 mM 3 hours): 30%; PERCENT PROTECTION ([4]; 0.100 μM + NMDA): 0%; EFFECTIVE PROTECTION ([4]; 0.100 μM + NMDA): 0%
CN[C@H]1CCc2ccccc21.Cl [Compound 14, (S)-N-Methyl-1-aminoindan.HCl] | – | <100 mg/kg | 100 mg/kg | >142 mg/kg | 94 mg/kg | RATS scMet ED50 PI (rats [6]): >71 mg/kg
NC(=O)CNC1CCc2ccccc21 (racemic) [Compound 3, (rac)-N-(2-Acetamido)-1-aminoindan.HCl] | 36 mg/kg | <100 mg/kg | >100 mg/kg and 126 mg/kg | >50 mg/kg | <50 mg/kg | MICE scMet ED50 PI (mice [1]; listed as 3*): >130 mg/kg; MICE MES ED50 (mice [2]; listed as 3*): 83 mg/kg; MICE TD50 (mice [3]; listed as 3*): 127 mg/kg
NC(=O)CN[C@@H]1CCc2ccccc21 [Compound 1, (R)-N-(2-Acetamido)-1-aminoindan.HCl] | >200 mg/kg | 77 mg/kg | 198 mg/kg | >50 mg/kg | 50 mg/kg | –
Cl.NC(=O)CN[C@@H]1CCc2ccccc21 [D, (R)-Indanylglycinamide-HCl salt] | >130 mg/kg | 83 mg/kg | – | >180 mg/kg | – | –
